What was measured:
rat = assay: Repeated dose (28 day) toxicity study in rat; assay type: in vivo; details: repeated dose 28 day
Procedure: Repeated dose (28 day) toxicity studies were conducted using ANEB-001 in two species, rat and primate, selected on the basis of acceptable bioavailability and comparison of metabolite profiles with those in human liver microsomes.

C57 mice = assay: Reversal of THC-induced hypolocomotion in mice; assay type: in vivo; details: 30 min pre-test
Procedure: Reversal of THC-induced hypolocomotion in mice: Six C57 mice (Charles River, Wilmington, MA) were administered […] (THC) 3 mg/kg ip, 10 min pre-test. […] In this apparatus, four qualitatively different measures of locomotor activity are automatically scored. […] The magnitude of the effect is similar to that elicited by rimonabant given at 3 mg/kg po, and given 30 min pre-test.

CC(C)(C)NC(=O)N1CC(O[C@H](c2ccc(Cl)cc2)c2ccccc2C(F)(F)F)C1 [ANEB-001, 3-[(R)-2-(trifluoromethyl)-4′-chlorobenzhydryloxy]-N-(tert-butyl)azetidine-1-carboxamide]
findings at dose levels of 75 mg/kg/day (rat; 75 mg/kg/day): hepatic changes consistent with an adaptive response | no observed adverse effect level (rat; highest dose tested): 75 mg/kg/day | action of THC on the total active time parameter of locomotor measures (C57 mice; 30 mg/kg orally, THC 3 mg/kg ip 10 min pre-test, 15 min in locomotor activity cages): significantly reversed

Cc1c(C(=O)NN2CCCCC2)nn(-c2ccc(Cl)cc2Cl)c1-c1ccc(Cl)cc1 [rimonabant, reference compound]
magnitude of the effect on THC-induced hypolocomotion (compared with ANEB-001) (C57 mice; 3 mg/kg po): similar

— patent US20240000748A1, “FORMULATIONS AND METHODS FOR TREATING ACUTE CANNABINOID OVERDOSE” (Anebulo Pharmaceuticals, Inc., priority 2020, published 2024)
